{"source": "patent US10865397B2", "about": "“Recombinant polynucleotide sequence for producing astaxanthin and uses thereof” (ACADEMIA SINICA, priority 2014, dated 2020)", "key": {"[1]": {"conditions": "3′S, 3′S compared with the 3′R3′R, 3′R stereoisomer; cited from earlier work"}, "Cz30 strain [2]": {"tested_on": "Cz30 strain", "test": "Stress tolerance test: pretreated cells, series dilution on YPG plate", "source_text": "(§1) For the biorefinery application, plant biomass is one of the most abundant renewable resources on earth and is considered an essential building block for developing a sustainable society. Renewable biological resources from plant can be converted into bioproducts, such as biofuels, biochemicals, biolubricants, and biodegradable materials. To utilize the sugars contained in plant biomass, many available treatment techniques, including acid hydrolysis, steam explosion, ammonia fiber expansion, organosolv, sulfite pretreatment, alkaline wet oxidation, ozone pretreatment, and enzyme treatment, are employed for lignocellulose destruction. Toxins produced during acid and steam pretreatment of lignocellulose cover a large range of substances, such as furfural and hydroxymethylfurfural from hemicellulose and cellulose, alcohols and aldehydes from lignin, and heavy metals from bioreactor. Accordingly, the second stress factor examined was furfural treatment.\n(§2) WT and Cz30 strains were further tested for ethanol and butanol treatments."}, "Cz30 strain [3]": {"tested_on": "Cz30 strain", "protocol": "(§3) After 24 hours, the cells were inoculated into the YPG plate with a series dilution and cultivated for another 48 hours."}, "WT strain [4]": {"tested_on": "WT strain", "conditions": "2, 4, or 6% ethanol in YPG medium, 24 hours", "protocol": "as §3"}, "WT strain [5]": {"tested_on": "WT strain", "test": "Stress tolerance test: pretreated cells, series dilution on YPG plate", "conditions": "colonies on plate (FIG. 27B)", "source_text": "as §1, §2"}}, "data": [{"smiles": "CC1=C(/C=C/C(C)=C/C=C/C(C)=C/C=C/C=C(C)/C=C/C=C(C)/C=C/C2=C(C)C(=O)[C@@H](O)CC2(C)C)C(C)(C)C[C@H](O)C1=O", "note": "(single isomer, unassigned; stereoisomer 3) [3′S, 3′S stereoisomer, 3′S, 3′S-astaxanthin]", "values": [{"measurement": "antioxidant activity of astaxanthin stereoisomers", "setting": "[1]", "result": "higher antioxidant activity"}]}, {"smiles": "CC1=C(/C=C/C(C)=C/C=C/C(C)=C/C=C/C=C(C)/C=C/C=C(C)/C=C/C2=C(C)C(=O)[C@@H](O)CC2(C)C)C(C)(C)C[C@@H](O)C1=O", "note": "[3′R3′R, 3′S mesoform, 3′R3′R, 3′S astaxanthin]", "values": [{"measurement": "antioxidant activity of astaxanthin stereoisomers", "setting": "[1]", "result": "no antioxidant activity"}]}, {"smiles": "CC(=O)O[C@@]12CO[C@@H]1C[C@H](O)[C@@]1(C)C(=O)[C@H](O)C3=C(C)[C@@H](O)C[C@@](O)([C@@H](OC(=O)c4ccccc4)[C@H]21)C3(C)C", "note": "[10-deacetyl baccatin III]", "values": [{"measurement": "colony growth on YPG plate after pretreatment", "setting": "Cz30 strain [2]; 3.2 mM 10-deacetyl baccatin III in 12% ethanol, 24 hours, then 48 hours on plate, Cz30 versus WT", "result": "Cz30 colonies grew better than WT"}, {"measurement": "damage to cultured yeasts compared with ethanol alone", "setting": "Cz30 strain [3]; 0.8 mM with 4% ethanol or 1.2 mM with 6% ethanol versus 4% or 6% ethanol, WT and Cz30 (FIG. 29B)", "result": "higher degree of damage"}, {"measurement": "growth in medium containing 10-deacetyl baccatin III", "setting": "Cz30 strain [3]; 0.4-1.2 mM in YPG medium, Cz30 versus WT", "result": "Cz30 grew better than WT"}]}, {"smiles": "CCO", "note": "[ethanol]", "values": [{"measurement": "colony growth on YPG plate after treatment", "setting": "Cz30 strain [2]", "result": "Only some Cz30 colonies could grow"}, {"measurement": "cell growth in presence of ethanol", "setting": "Cz30 strain [3]; 2, 4, or 6% ethanol in YPG medium, 24 hours", "result": "weakly affected"}, {"measurement": "cell growth in presence of ethanol", "setting": "WT strain [4]", "result": "significantly repressed"}]}, {"smiles": "O=Cc1ccco1", "note": "[furfural]", "values": [{"measurement": "furfural treatment tolerated", "setting": "Cz30 strain [2]; Cz30 strain, colonies on plate (FIG. 27B)", "result": 100, "unit": "mM"}, {"measurement": "furfural treatment tolerated", "setting": "WT strain [5]", "result": 80, "unit": "mM"}]}, {"smiles": "CC(C)CO", "note": "[isobutanol]", "values": [{"measurement": "colony growth on YPG plate after treatment", "setting": "Cz30 strain [2]", "result": "Only some Cz30 colonies could grow"}]}]}
